Assay results from patent EP4768482A1, “THIOBENZIMIDAZOLE DERIVATIVE OR PHARMACEUTICALLY ACCEPTABLE SALT THEREOF, AND USE THEREOF” (Korea University Research and Business Foundation, priority 2023, dated 2025).

Test system: MDA-MB-231
Experiment: MTS cell viability assay, MDA-MB-231 breast cancer cell line
Type: cell-based
Conditions: Homo sapiens, MDA-MB-231 cell line, 0-10 µM, 72 hours
Protocol: MDA-MB-231 (Cell seeding numbers: 0.8(M231) x 10^4 cells/wells (confluency ≧ 25%), which is a human triple-negative breast cancer (TNBC) cell line, and JIMT-1 (Cell seeding numbers: 0.8(JIMT) x 10^4 cells/wells (confluency ≧ 25%)), which is a HER2 positive breast cancer (HER2+ BC) cell line, were used in the experiment.
The above cell lines were cultured in an environment of 5% CO2 and 37°C in a Dulbecco's modified Eagle's medium (DMEM) including a 10% fetal bovine serum (FBS), a streptomycin-penicillin (100 U/mL), and a Fungizone (0.625 µg/mL), respectively.
The human breast cancer cell lines MDA-MB-231 and JIMT-1 were treated with thiobenzimidazole derivatives of Formulas 1-1 to 1-10 at concentrations of 0, 0.5, 1, and 5 µM, respectively, for 72 hours, and then cell viability was measured using the MTS assay technique. In the MTS assay, cells were attached to a 96-well plate for 24 hours, treated with the thiobenzimidazole derivative for 72 hours, developed with MTS (3-(4,5-dimethylthiazol-2-yl)-5-(3-carboxymethoxyphenyl)-2-(4-sulfophenyl)-2H-tetrazolium) for 4 hours, and then absorbance was measured at 490 nm using a Spectramax Plus384 microplate analyzer. The results are illustrated in FIG. 1, and as illustrated in the drawing, it was confirmed that the thiobenzimidazole derivatives of Formula 1-1 to 1-10 inhibited cell viability in a concentration-dependent manner in the human breast cancer cell lines MDA-MB-231 and JIMT-1.
The MDA-MB-231 and JIMT-1 cell lines were treated with thiobenzimidazole derivatives (Formula 1-1 to 1-4) of the disclosure at concentrations of 0, 0.01, 0.05, 0.1, 0.25, 0.5, 1, 5, and 10 µM, respectively, and then cell viability and IC50 values therefrom were confirmed. The preparation method of the cell lines and the experimental method were the same as those performed in Example 1.

| Compound | IC50 |
| --- | --- |
| COC(=O)Nc1nc2cc(Sc3ccc(N4CCC(N5CCOCC5)CC4)cc3)ccc2[nH]1 [Formula 1-1, Methyl (5-((4-(4-morpholinopiperidin-1-yl)phenyl)thio)-1H-benzo[d]imidazol-2-yl)carbamate] | 592 nM |
| COC(=O)Nc1nc2cc(Sc3ccc(N4CCOCC4)c(F)c3)ccc2[nH]1 [Formula 1-2, Methyl (5-((3-fluoro-4-morpholinophenyl)thio)-1H-benzo[d]imidazol-2-yl)carbamate] | 174 nM |
| COC(=O)Nc1nc2cc(Sc3ccc(N4CCN(C)CC4)c(F)c3)ccc2[nH]1 [Formula 1-3, Methyl (5-((3-fluoro-4-(4-methylpiperazin-1-yl)phenyl)thio)-1H-benzo[d]imidazol-2-yl)carbamate] | 583 nM |
| COC(=O)Nc1nc2cc(Sc3ccc(N4CCC(O)CC4)nc3)ccc2[nH]1 [Formula 1-4, Methyl (5-((6-(4-hydroxypiperidin-1-yl)pyridin-3-yl)thio)-1H-benzo[d]imidazol-2-yl)carbamate] | 135 nM |
